According to US12325703B2, “Fused ring compound as FGFR and VEGFR dual inhibitor” (CGENETECH (SUZHOU, CHINA) CO., LTD., priority 2019, dated 2025):
pIC50: −log10 of the molar value. Counter-ions that a name gives are not always drawn.

Key:
human FGFR2 = biological target: T1, human FGFR2 (Homo sapiens, UniProt P21802); assay: 33P isotope-labeled kinase activity test (Reaction Biology Corp), FGFR2; type: biochemical; conditions: 33P-ATP 5 μM, kinase 0.45 nM, 120 min room temperature
T1 construct: purchased Invitrogen PV3368
T1 sequence (P21802 22-821): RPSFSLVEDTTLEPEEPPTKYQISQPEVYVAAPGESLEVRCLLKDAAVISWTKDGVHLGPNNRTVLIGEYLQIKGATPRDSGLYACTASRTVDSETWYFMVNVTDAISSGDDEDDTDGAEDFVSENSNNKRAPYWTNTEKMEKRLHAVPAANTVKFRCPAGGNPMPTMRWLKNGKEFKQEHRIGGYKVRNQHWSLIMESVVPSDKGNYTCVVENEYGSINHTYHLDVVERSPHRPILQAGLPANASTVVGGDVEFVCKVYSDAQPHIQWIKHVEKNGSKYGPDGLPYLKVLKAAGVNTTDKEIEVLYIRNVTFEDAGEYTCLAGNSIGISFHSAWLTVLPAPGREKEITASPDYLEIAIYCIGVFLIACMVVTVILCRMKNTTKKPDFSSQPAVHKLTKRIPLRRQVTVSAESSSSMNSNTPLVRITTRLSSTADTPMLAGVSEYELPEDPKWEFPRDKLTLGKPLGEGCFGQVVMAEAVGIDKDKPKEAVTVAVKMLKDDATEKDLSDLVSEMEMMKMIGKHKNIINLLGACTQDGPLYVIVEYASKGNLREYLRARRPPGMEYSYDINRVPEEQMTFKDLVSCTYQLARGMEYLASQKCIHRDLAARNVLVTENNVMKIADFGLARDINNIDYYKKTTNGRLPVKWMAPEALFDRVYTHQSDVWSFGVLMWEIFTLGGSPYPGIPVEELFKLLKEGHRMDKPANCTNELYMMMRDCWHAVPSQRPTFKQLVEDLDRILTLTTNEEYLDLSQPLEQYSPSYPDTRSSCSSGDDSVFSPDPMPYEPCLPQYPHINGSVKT
Experimental: (§1) The IC50 value was determined using ^33P isotope-labeled kinase activity test (Reaction Biology Corp) to evaluate the inhibitory ability of the compounds to be tested on human FGFR1, FGFR2 and VEGFR2.
(§2) Buffer conditions: 20 mM Hepes (pH 7.5), 10 mM MgCl2, 1 mM EGTA, 0.02% Brij35, 0.02 mg/mL BSA, 0.1 mM Na3VO4, 2 mM DTT, 1% DMSO.
(§3) Test steps: At room temperature, the compounds to be tested were dissolved in DMSO to prepare a 10 mM solution for use. The substrate was dissolved in the newly-prepared buffer, and the kinase to be tested was added thereto and mixed well. The DMSO solution in which the compounds to be tested were dissolved was added to the above-mentioned homogeneous reaction solution using acoustic technology (Echo 550). […] After incubating for 15 minutes, to the reaction solution was added ^33P-ATP (activity: 0.01 μCi/μL, with corresponding concentration listed in Table 10) to start the reaction. […] The kinase activity data was expressed by comparing the kinase activity of the groups containing the compounds to be tested with that of the blank group (containing only DMSO). The IC50 value was obtained by curve fitting using Prism4 software (GraphPad), and the experimental results were shown in Table 11.

human VEGFR2 = biological target: T2, human VEGFR2 (Homo sapiens, UniProt P35968); assay: 33P isotope-labeled kinase activity test (Reaction Biology Corp), VEGFR2; type: biochemical; conditions: 33P-ATP 20 μM, kinase 1 nM, 120 min room temperature
T2 construct: purchased Invitrogen PR5992C
T2 sequence (P35968 20-1356): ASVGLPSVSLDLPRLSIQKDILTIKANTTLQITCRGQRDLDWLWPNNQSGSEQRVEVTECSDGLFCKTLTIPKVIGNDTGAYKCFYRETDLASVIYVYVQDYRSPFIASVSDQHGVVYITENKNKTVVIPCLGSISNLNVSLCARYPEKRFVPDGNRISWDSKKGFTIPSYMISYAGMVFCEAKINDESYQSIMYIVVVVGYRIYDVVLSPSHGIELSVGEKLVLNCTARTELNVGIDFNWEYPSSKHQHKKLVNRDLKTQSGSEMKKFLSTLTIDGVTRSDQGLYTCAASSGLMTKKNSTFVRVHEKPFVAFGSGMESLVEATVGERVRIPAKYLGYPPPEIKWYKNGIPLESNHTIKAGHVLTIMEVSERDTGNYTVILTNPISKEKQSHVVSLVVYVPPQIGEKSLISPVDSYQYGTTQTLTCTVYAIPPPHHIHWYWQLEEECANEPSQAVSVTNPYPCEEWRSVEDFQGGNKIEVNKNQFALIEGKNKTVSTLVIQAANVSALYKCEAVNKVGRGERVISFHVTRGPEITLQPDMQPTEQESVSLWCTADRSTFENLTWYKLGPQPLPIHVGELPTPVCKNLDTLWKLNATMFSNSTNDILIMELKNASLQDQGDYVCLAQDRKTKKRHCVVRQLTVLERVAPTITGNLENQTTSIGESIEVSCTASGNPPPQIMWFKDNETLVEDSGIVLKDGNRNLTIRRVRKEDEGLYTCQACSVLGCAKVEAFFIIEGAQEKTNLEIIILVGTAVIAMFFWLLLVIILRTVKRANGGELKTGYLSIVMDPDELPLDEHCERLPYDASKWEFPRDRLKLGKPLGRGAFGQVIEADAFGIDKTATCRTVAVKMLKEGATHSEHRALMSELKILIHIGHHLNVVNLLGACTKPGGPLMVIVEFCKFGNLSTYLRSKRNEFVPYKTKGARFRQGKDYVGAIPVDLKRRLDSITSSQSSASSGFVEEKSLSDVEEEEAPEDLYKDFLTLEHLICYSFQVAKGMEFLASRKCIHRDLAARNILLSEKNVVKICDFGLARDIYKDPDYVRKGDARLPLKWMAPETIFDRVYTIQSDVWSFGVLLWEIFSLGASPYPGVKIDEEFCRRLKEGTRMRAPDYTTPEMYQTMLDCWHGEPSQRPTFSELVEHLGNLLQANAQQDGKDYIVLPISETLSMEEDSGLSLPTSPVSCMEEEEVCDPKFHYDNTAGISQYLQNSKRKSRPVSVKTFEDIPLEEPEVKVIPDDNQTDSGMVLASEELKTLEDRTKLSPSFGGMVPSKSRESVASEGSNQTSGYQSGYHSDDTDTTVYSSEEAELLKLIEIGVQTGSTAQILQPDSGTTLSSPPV
Experimental: as §1, §2, §3

[1] = test system: human gastric cancer SNU-16 cells expressing FGFR2; assay: Cell activity (proliferation) test of gastric cancer cell line SNU-16, CellTiter-Glo; type: cell-based; conditions: inhibition of proliferation
Experimental: To test the inhibitory effect of the compounds on the proliferation of human gastric cancer SNU-16 cells expressing FGFR2.
The compounds used in the test were subjected to 3-fold concentration dilution, the concentration starting from 10 μM and subjected to […], resulting in 9 concentrations: 10 μM, 2.50 μM, 0.62 μM, 0.156 μM, 39.1 nM, 9.8 nM, 2.4 nM, 0.61 nM, and 0.15 nM.
(1) Promega CellTiter-Glo luminescent cell viability assay kit (Promega-G7573).
(2) 2104 EnVision multi-tag reader, PerkinElmer.
The inhibition rate of different doses of the compounds would be calculated in the Excel file, and the IC50 data was obtained by parametric curve fitting (GraphPad Software).

human FGFR1 = biological target: T3, human FGFR1 (Homo sapiens, UniProt P11362); assay: 33P isotope-labeled kinase activity test (Reaction Biology Corp), FGFR1; type: biochemical; conditions: 33P-ATP 5 μM, kinase 1.5 nM, 120 min room temperature
T3 construct: purchased Invitrogen PV3146
T3 sequence (P11362 22-822): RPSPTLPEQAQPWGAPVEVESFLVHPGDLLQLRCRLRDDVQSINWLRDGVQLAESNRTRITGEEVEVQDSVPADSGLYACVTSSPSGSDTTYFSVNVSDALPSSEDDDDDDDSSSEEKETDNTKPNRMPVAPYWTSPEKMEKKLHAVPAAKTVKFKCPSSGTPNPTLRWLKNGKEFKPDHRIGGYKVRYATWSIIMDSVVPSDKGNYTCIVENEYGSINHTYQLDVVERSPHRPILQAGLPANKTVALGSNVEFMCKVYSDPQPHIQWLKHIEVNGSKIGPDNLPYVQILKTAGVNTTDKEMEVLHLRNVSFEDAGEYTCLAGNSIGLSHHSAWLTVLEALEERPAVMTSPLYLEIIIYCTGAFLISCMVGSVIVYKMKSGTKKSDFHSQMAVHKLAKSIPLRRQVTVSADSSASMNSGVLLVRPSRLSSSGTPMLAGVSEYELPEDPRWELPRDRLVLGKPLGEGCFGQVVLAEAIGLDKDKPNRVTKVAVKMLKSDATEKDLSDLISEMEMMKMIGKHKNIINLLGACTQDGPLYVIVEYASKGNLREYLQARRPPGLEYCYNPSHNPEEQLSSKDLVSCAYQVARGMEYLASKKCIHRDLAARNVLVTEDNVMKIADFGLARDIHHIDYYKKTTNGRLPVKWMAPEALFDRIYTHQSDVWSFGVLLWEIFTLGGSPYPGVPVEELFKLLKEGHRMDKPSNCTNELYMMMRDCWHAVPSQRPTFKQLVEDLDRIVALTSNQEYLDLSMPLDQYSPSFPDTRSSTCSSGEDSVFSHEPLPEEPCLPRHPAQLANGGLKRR
Experimental: as §1, §2, §3

pIC50 (human FGFR2)	Structure (SMILES)	also measured
9.14	CS(=O)(=O)Nc1cc(-c2ncc(F)cc2F)cc(-c2cnn3cc(-c4cnn(CCN5CCOCC5)c4)ccc23)c1 [Compound 38]	–
7.19	Cn1cc(-c2ccc3c(-c4cc(NS(=O)(=O)C5CC5)cc(-c5ccc(F)nc5F)c4)cnn3c2)cn1 [Compound 8]	–
9.52	CN1CCC(n2cc(-c3ccc4c(-c5cc(NS(C)(=O)=O)cc(-c6ccc(F)cc6F)c5)cnn4c3)cn2)CC1 [Compound 30]	–
9.38	CS(=O)(=O)Nc1cc(-c2ncc(F)cc2F)cc(-c2cnn3cc(-c4cnn(CC(O)CO)c4)ccc23)c1 (stereo not shown) [Compound 34]	pIC50 (human VEGFR2): 9.54
7.53	CS(=O)(=O)Nc1cc(-c2ncc(F)cc2F)cc(-c2cnn3cc(-c4cnn(CC5COCCN5Cc5ccccc5)c4)ccc23)c1 (stereo not shown) [Compound 45]	pIC50 (human VEGFR2): 7.95
8.36	CS(=O)(=O)Nc1cc(-c2ccc(F)cc2F)cc(-c2cnn3cc(-c4cnn(CC(O)CO)c4)ccc23)c1 (stereo not shown) [Compound 22]	pIC50 [1]: 7.55; pIC50 (human VEGFR2): 8.73
9.02	CS(=O)(=O)Nc1cc(-c2ncc(F)cc2F)cc(-c2cnn3cc(-c4cnn(CC5COCCO5)c4)ccc23)c1 (stereo not shown) [Compound 39]	pIC50 (human VEGFR2): 9.18
6.54	CS(=O)(=O)Nc1cc(-c2ccc(F)cc2F)cc(-c2cnn3cc(-c4ncn(C5CCOCC5)n4)ccc23)c1 [Compound 15]	–
8.96	Cn1cc(-c2ccc3c(-c4cc(NS(C)(=O)=O)cc(-c5ncc(F)cc5F)c4)cnn3c2)cn1 [Trifluoroacetate salt of compound 32]	–
9.24	CS(=O)(=O)Nc1cc(-c2ccc(F)cc2F)cc(-c2cnn3cc(-c4cnn(C5CCNCC5)c4)ccc23)c1 [Hydrochloride salt of compound 21]	pIC50 [1]: 8.02
8.92	CCS(=O)(=O)Nc1cc(-c2ncc(F)cc2F)cc(-c2cnn3cc(-c4cnn(C)c4)ccc23)c1 [Trifluoroacetate salt of compound 33]	pIC50 [1]: 8.21
9.64	CN1CCC(n2cc(-c3ccc4c(-c5cc(NS(C)(=O)=O)cc(-c6ncc(F)cc6F)c5)cnn4c3)cn2)CC1 [Compound 36]	–
8.40	CS(=O)(=O)Nc1cc(-c2cnn3cc(-c4cnn(CCN5CCOCC5)c4)ccc23)cc(-c2ccc(F)cc2F)n1 [Trifluoroacetate salt of compound 29]	–
8.97	Cn1cc(-c2ccc3c(-c4cc(-c5ccc(F)cc5F)cc(NS(=O)(=O)C5CC5)n4)cnn3c2)cn1 [Compound 42]	–
7.97	Cn1cc(-c2ccc3c(-c4cc(NCC(C)(C)O)cc(-c5ccc(F)cc5F)c4)cnn3c2)cn1 [Compound 54]	–
8.73	Cn1cc(-c2ccc3c(-c4cc(NC(=O)NC5CC5)cc(-c5ccc(F)cc5F)c4)cnn3c2)cn1 [Compound 23]	–
7.05	Cc1ncn(-c2ccc3c(-c4cc(NS(C)(=O)=O)cc(-c5ccc(F)cc5F)c4)cnn3c2)n1 [Compound 19]	–
8.00	CONC(=O)Nc1cc(-c2ccc(F)cc2F)cc(-c2cnn3cc(-c4cnn(C)c4)ccc23)c1 [Compound 24]	–
–	CC(C)Nc1cc(-c2ccc(F)cc2F)cc(-c2cnn3cc(-c4cnn(C)c4)ccc23)c1 [Compound 6]	pIC50 (human FGFR1): 7.77
–	Cn1cc(-c2ccc3c(-c4cc(NS(C)(=O)=O)cc(-c5ccc(F)cc5F)c4)cnn3c2)nn1 [Compound 26]	pIC50 [1]: 8.11
9.12	Cn1cc(-c2ccc3c(-c4cc(NS(=O)(=O)C5CC5)cc(-c5ncc(F)cc5F)c4)cnn3c2)cn1 [Trifluoroacetate salt of compound 11]	pIC50 [1]: 7.98; pIC50 (human VEGFR2): 9.22
9.14	CS(=O)(=O)Nc1cc(-c2ncc(F)cc2F)cc(-c2cnn3cc(-c4cnn(CC5COCCN5)c4)ccc23)c1 (stereo not shown) [Compound 44]	pIC50 (human VEGFR2): 8.85
6.59	CS(=O)(=O)Nc1cc(-c2ccc(F)cc2F)cc(-c2cnn3cc(-c4ncn(CCO)n4)ccc23)c1 [Compound 18]	–
9.11	CS(=O)(=O)CCCn1cc(-c2ccc3c(-c4cc(NS(C)(=O)=O)cc(-c5ncc(F)cc5F)c4)cnn3c2)cn1 [Compound 40]	pIC50 (human VEGFR2): 8.70
8.59	Cn1cnc(-c2ccc3c(-c4cc(NS(C)(=O)=O)cc(-c5ccc(F)cc5F)c4)cnn3c2)c1 [Trifluoroacetate salt of compound 27]	pIC50 [1]: 7.94
8.25	Cn1cc(-c2ccc3c(-c4cc(NCC(O)CO)cc(-c5ccc(F)cc5F)c4)cnn3c2)cn1 (stereo not shown) [Compound 53]	pIC50 (human VEGFR2): 8.44

pIC50 (human FGFR2)	Structure (SMILES)	also measured
6.44	Cn1nccc1-c1ccc2c(-c3cc(NS(C)(=O)=O)cc(-c4ccc(F)cc4F)c3)cnn2c1 [Compound 28]	–
8.43	Cn1cc(-c2ccc3c(-c4cc(NS(C)(=O)=O)nc(-c5ccc(F)cc5F)c4)cnn3c2)cn1 [Compound 12]	–
8.64	Cn1cc(-c2ccc3c(-c4cc(NCC(C)(C)O)cc(-c5ncc(F)cc5F)c4)cnn3c2)cn1 [Compound 49]	–
–	Cn1cc(-c2ccc3c(c2)ncn3-c2cc(NS(=O)(=O)C3CC3)cc(-c3ccc(F)cc3F)c2)cn1 [Comparative example 1, reference compound]	pIC50 [1]: 7.21
6.85	CCS(=O)(=O)Nc1cc(-c2ccc(F)cc2F)cc(-c2cnn3cc(-n4cnc(C)n4)ccc23)c1 [Compound 17]	–
6.51	Cc1ncn(-c2ccc3c(-c4cc(NS(=O)(=O)C5CC5)cc(-c5ccc(F)cc5F)c4)cnn3c2)n1 [Compound 16]	–
–	CC(=O)Nc1cc(-c2ccc(F)cc2F)cc(-c2cnn3cc(-c4cnn(C)c4)ccc23)c1 [Compound 3]	pIC50 (human FGFR1): 8.63
8.90	O=S(=O)(Nc1cc(-c2ccc(F)cc2F)cc(-c2cnn3cc(-c4cnn(C5CCNCC5)c4)ccc23)c1)C1CC1 [Hydrochloride salt of compound 51]	–
8.98	Cn1cc(-c2ccc3c(-c4cc(NCC(O)CO)cc(-c5ncc(F)cc5F)c4)cnn3c2)cn1 (stereo not shown) [Compound 50]	pIC50 (human VEGFR2): 8.42
9.64	CN(C)CCn1cc(-c2ccc3c(-c4cc(NS(C)(=O)=O)cc(-c5ccc(F)cc5F)c4)cnn3c2)cn1 [Compound 20]	pIC50 [1]: 8.12
9.02	Cn1cc(-c2ccc3c(-c4cc(NCC5COC(C)(C)O5)cc(-c5ncc(F)cc5F)c4)cnn3c2)cn1 (stereo not shown) [Compound 48]	pIC50 (human VEGFR2): 8.08
7.40	Cn1cc(-c2ccc3c(-c4cc(NC(=O)N5CCC(O)C5)cc(-c5ccc(F)cc5F)c4)cnn3c2)cn1 (stereo not shown) [Compound 25]	pIC50 (human VEGFR2): 7.65
8.70	Cn1cc(-c2ccc3c(-c4cc(NS(C)(=O)=O)cc(-c5ccc(F)cc5F)c4)cnn3c2)nn1 [Trifluoroacetate salt of compound 26]	pIC50 (human VEGFR2): 8.56
7.13	Cn1cc(-c2ccc3c(-c4cc(NS(=O)(=O)C5CC5)cc(-c5ccc(F)nc5)c4)cnn3c2)cn1 [Trifluoroacetate salt of compound 9]	–
8.74	Cn1cc(-c2ccc3c(-c4cc(-c5ccc(F)cc5F)cc(NS(C)(=O)=O)n4)cnn3c2)cn1 [Compound 41]	–
–	Cn1cnc(-c2ccc3c(-c4cc(NS(C)(=O)=O)cc(-c5ccc(F)cc5F)c4)cnn3c2)n1 [Compound 7]	pIC50 (human FGFR1): 6.87
7.31	CS(=O)(=O)Nc1cc(-c2ncc(F)cc2F)cc(-c2cnn3cc(C4CC4)ccc23)c1 [Compound 35]	–
8.18	Cn1cc(-c2ccc3c(-c4cc(NCC5COC(C)(C)O5)cc(-c5ccc(F)cc5F)c4)cnn3c2)cn1 (stereo not shown) [Compound 52]	pIC50 (human VEGFR2): 7.67
–	Cn1cc(-c2ccc3c(-c4cc(NS(=O)(=O)C5CC5)nc(-c5ccc(F)cc5F)c4)cnn3c2)cn1 [Compound 14]	pIC50 (human FGFR1): 7.99
9.33	CCS(=O)(=O)Nc1cc(-c2ccc(F)cc2F)cc(-c2cnn3cc(-c4cnn(C)c4)ccc23)n1 [Compound 43]	–
8.53	CCS(=O)(=O)Nc1cc(-c2cnn3cc(-c4cnn(C)c4)ccc23)cc(-c2ccc(F)cc2F)n1 [Compound 13]	–
9.35	O=S(=O)(Nc1cc(-c2ncc(F)cc2F)cc(-c2cnn3cc(-c4cnn(C5CCNCC5)c4)ccc23)c1)C1CC1 [Hydrochloride salt of compound 47]	–
7.44	Cn1cc(-c2ccc3c(-c4cc(NS(=O)(=O)C5CC5)cc(-c5cccnc5F)c4)cnn3c2)cn1 [Trifluoroacetate salt of compound 10]	–
9.74	CS(=O)(=O)Nc1cc(-c2ncc(F)cc2F)cc(-c2cnn3cc(-c4cnn(C5CCNCC5)c4)ccc23)c1 [Hydrochloride salt of compound 37]	–
8.75	CC(C)(O)Cn1cc(-c2ccc3c(-c4cc(NS(C)(=O)=O)cc(-c5ncc(F)cc5F)c4)cnn3c2)cn1 [Compound 31]	–
